Where “and” joins values, the source holds several entries; their conditions need not be identical. Identical values can stand only once.
Tests used:
[1] = tested on: PQ-treated Neuro-2a cells; test: Intracellular ROS level in PQ-treated cells (H2DCF-DA); format: cell-based, murine; details: Mus musculus, N2a, 0.1 μM (minimum studied concentration), PQ 1 mM
Description: After 24 h of adhesion, Neuro-2a cells (1 × 10^4 cells/well) were incubated with stilbenes (0.01–10 µM) for 1 h. After that, we added PQ (1 mM) to each well and incubated the cells for 3 h. To study ROS formation, we added 20 µL of 2,7-dichlorodihydrofluorescein diacetate solution ([…], H2DCF-DA, Molecular Probes, Eugene, OR, USA) to each well, so that the concentration was 10 µM, and kept the microplate in a CO2–incubator for additional 30 min at 37 °C.

HSV-1 = test: Anti-HSV-1 activity, cytopathic effect (CPE) inhibition assay in Vero cells; format: cell-based, HSV-1 strain L2
Description: (§1) The HSV-1 strain L2 and Vero cell culture (kidney epithelial cells of the African green monkey Chlorocebus sp.) were obtained from the N.F. Gamaleya Federal Research Centre for Epidemiology and Microbiology (Moscow, Russia). HSV-1 was grown in Vero cells, using Dulbecco′s Modified Eagle′s Medium (DMEM, Biolot, St. Petersburg, Russia) supplemented with 10% fetal bovine serum (FBS, Biolot, St. Petersburg, Russia) and 100 U/mL of gentamycin (Dalkhimpharm, Khabarovsk, Russia), at 37 °C in a CO2 incubator. In the maintenance medium, the FBS concentration was decreased to 1%.
(§2) The tested compounds were dissolved in DMSO (Sigma, St. Louis, MO, USA) at a concentration 10 mg/mL and stored at −20 °C. For cytotoxicity and anti-HSV-1 activity determination, the stock solutions were diluted with DMEM so that the final concentration of DMSO was 0.5%.
The anti-HSV-1 activity of stilbenes was evaluated using cytopathic effect (CPE) inhibition assay in Vero cells. We infected the monolayer of cells grown in 96-well plates (1 × 10^4 cells/well) with 100 µL/well of virus suspension (100 TCD50/mL) and we simultaneously treated it with stilbenes 1–6 (100 µL/well) at various concentrations (from 1 to 400 μg/mL) for one hour at 37 ◦C. After virus absorption, we removed the mixture of virus and stilbenes, washed the cells, and added the maintenance medium with 1% FBS. […] We used MTT assay to evaluate the antiviral activity of stilbenes. The viral inhibition rate (IR, %) was calculated according to Equation (3):(3) IR, %=Atv−Acv/Acd−Acv×100, where: • Atv is the absorbance of cells infected with virus and treated with a polyphenolic compound; • Acv is the absorbance of the untreated virus-infected cells; • Acd is the absorbance of control (untreated and non-infected) cells.
The selectivity index (SI) was calculated as the ratio of CC50 to IC50. Experiments were repeated three times.

[2] = DPPH radical scavenging assay; details: 20 min
Description: The DPPH (2,2-diphenyl-1-picrylhydrazyl) scavenging effect of polyphenolic compounds 1-6 from M. amurensis heartwood was evaluated as described previously in [40]. Stilbenes were added to DPPH solution in MeOH (10^−4 M) at a concentration range from 1 to 34 µM. The mixture was kept in the dark at room temperature for 20 min. Then, we measured the absorbance at 517 nm using a Shimadzu UV 1240 spectrophotometer (Shimadzu, Kyoto, Japan). The DPPH radical-scavenging effect (%) of the stilbenes was calculated using Equation (1): (1) DPPH scavenging effect, %=A0−Ax/A0×100, where: • A0 is the absorbance of DPPH solution without polyphenolic compounds (blank sample); • Ax is the absorbance of DPPH solution in the presence of different concentrations of polyphenolic compounds.
Quercetin and ascorbic acid were used as reference compounds. All experiments were performed in triplicate. The half maximal inhibitory concentration (IC50) for polyphenolic compounds was calculated by plotting the DPPH scavenging effect (%) against the concentrations of polyphenolic compounds. IC50 values are given as the mean ± SEM.

[3] = Cytotoxic activity against Neuro-2a cells (MTT assay); format: cell-based, murine; details: mouse, Neuro-2a neuroblastoma cells, data not shown, read-out: EC50 of cell viability reduction (cytotoxic activity)
Description: We purchased the murine neuroblastoma cell line Neuro-2a (CCL-131) from the American Type Culture Collection (ATCC®) (Manassas, VA, USA). We cultured Neuro-2a cells in Dulbecco′s Modified Eagle Medium (Biolot, St. Petersburg, Russia), which contained 10% fetal bovine serum (Biolot, St. Petersburg, Russia) and 1% penicillin/streptomycin (Biolot, St. Petersburg, Russia). We incubated the cells at 37 °C in a humidified atmosphere containing 5% (v/v) CO2.
We prepared the stock solutions of stilbenes in DMSO at a concentration of 10 mM. Compounds 1–6 were added to the wells of the plates in a volume of 20 μL diluted in PBS at the following final concentrations: 0.1, 1.0, and 10.0 µM (final concentration of DMSO <1%).
Neuro-2a cells (1 × 10^4 cells/well) were kept in a CO2 incubator at 37 °C for 24 h until they formed an adherent monolayer. Then, 20 μL of stilbenes solution was added to the cells. After incubation for 24 h, the medium containing the stilbenes was replaced by 100 μL of fresh DMEM medium. Then, we added 10 μL of MTT (3-(4,5-dimethylthiazol-2-yl)-2,5-diphenyltetrazolium bromide) (Sigma-Aldrich, St. Louis, MO, USA) stock solution (5 mg/mL) to each well and incubated the microplate for 4 h. […] After incubation for 18 h, we measured the absorbance of the converted dye formazan on a Multiskan FC microplate photometer (Thermo Scientific, Waltham, MA, USA) at a wavelength of 570 nm. […]

[4] = tested on: PQ-treated Neuro-2a cells; test: Mitochondrial membrane potential in PQ-treated cells (TMRM); format: cell-based, murine; details: 0.1 μM
Description: […] Then, we added PQ (500 μM) and kept the cell suspension in a CO2-incubator for 1 h. Cells incubated without PQ and stilbenes and with PQ only were used as positive and negative control, respectively. We added the tetramethylrhodamine methyl (TMRM) (Sigma-Aldrich, St. Louis, MO, USA) solution (500 nM) to each well and kept the cells for 30 min in a CO2-incubator at 37 °C. The intensity of fluorescence was measured with a PHERAstar […] reader (BMG Labtech, Ortenberg, Germany) at λex = 540 nm and λem = 590 nm. We processed the data by MARS Data Analysis v. 3.01R2 (BMG Labtech, Ortenberg, Germany) and presented the results as percentages of the positive control value.

[5] = Cytotoxicity against Vero cells (MTT assay); format: cell-based; details: African green monkey (Chlorocebus sp.)
Description: as §1, §2
The cytotoxicity evaluation of the studied compounds was performed using the MTT assay, as described previously. In brief, confluent Vero cells in 96-well microplates (1 × 10^4 cells/well) were incubated with tested compounds at various concentrations (1–500 μg/mL) at 37 °C for 48 h (5% CO2). Untreated cells were used as controls. Then, MTT solution (methylthiazolyltetrazolium bromide, Sigma, St. Louis, MO, USA) was added to cells at a concentration of 5 mg/mL and the cells were incubated at 37 °C for 2 h. After dissolution of formazan crystals, optical densities were read at 540 nm (Labsystems Multiskan RC, Vantaa, Finland). […] [42]. Experiments were performed in triplicate and repeated three times.

[6] = Ferric reducing antioxidant power (FRAP) assay; details: 4 min, pH 3.6
Description: The FRAP assay was carried out as described in [41]. We prepared FRAP reagent by mixing 2.5 mL of TPTZ (2,4,6-tris(2-pyridyl)-s-triazine) solution (10 mM) in 40 mM HCl and […] of FeCl3 solution (20 mM) in acetate buffer solution (300 mM, pH 3.6). Then, we added stilbenes 1–6 to 3 mL of FRAP reagent at concentrations from 1 to 34 µM. The mixture was kept in the dark at room temperature for 4 min. Then, we measured the absorbance at 595 nm using a Shimadzu UV 1240 spectrophotometer. Equation (2) was used to calculate the FRAP values of stilbenes 1–6:(2) FRAP=CFe/Cx, where: • CFe is the concentration of Fe^2+ (µM) formed in the reaction; • Cx is the concentration of polyphenolic compounds in the reacting mixture.
The concentration of Fe^2+ (µM) formed in the reaction was determined using the calibration curve obtained for different concentrations of FeSO4·7H2O.

With `Oc1cc(O)cc(/C=C/c2ccc3c(c2)O[C@H](c2cc(O)cc(O)c2)[C@@H](c2ccc(O)c(O)c2)O3)c1` [Compound 3, maackin] the inhibition at 0.1 µM [1] was 17%, the IC50 (HSV-1; Human alphaherpesvirus 1, Vero, read-out: IC50 (CPE assay)) was 17.6 µg/mL and 36.2 µM and the “SI = CC50/IC50” value (HSV-1; Vero cells, HSV-1) was 15.3 ± 1.9. The “DPPH Scavenging Effect IC50” value [2] was 1.31 ± 0.15 µg, the IC50 ([2]; read-out: DPPH Scavenging Effect IC50) was 2.7 ± 0.3 µM and the EC50 at 24 h [3] was 87.7 µM. The “Increase of mitochondrial membrane potential compared to PQ-treated cells” value [4] was 16%, the CC50 at 48 h [5] was 270 µg/mL and 555 µM and the “FRAP CFe2+(µM)/Cpolyphenolic compound (µM)” value [6] was 10.11 ± 0.93 CFe2+(µM)/Cpolyphenolic compound (µM). For the same molecule, the “FRAP CFe2+(µM)/Cpolyphenolic compound (μkg/mL)” value [6] was 20.80 ± 1.91 CFe2+(µM)/Cpolyphenolic compound (μkg/mL).

— PMC10056899, “Neuroprotective and Antiherpetic Properties of Polyphenolic Compounds from Maackia amurensis Heartwood” (Molecules, 2023)
